Measured values from ChEMBL document CHEMBL4392845, “Structure-activity relationship study of estrogen receptor down-regulators with a diphenylmethane skeleton” (Bioorg Med Chem, 2019).

Columns and labels:
Estrogen receptor [1] = biological target: T1, Estrogen receptor (Homo sapiens, UniProt P03372)
T1 sequence (P03372 whole entry): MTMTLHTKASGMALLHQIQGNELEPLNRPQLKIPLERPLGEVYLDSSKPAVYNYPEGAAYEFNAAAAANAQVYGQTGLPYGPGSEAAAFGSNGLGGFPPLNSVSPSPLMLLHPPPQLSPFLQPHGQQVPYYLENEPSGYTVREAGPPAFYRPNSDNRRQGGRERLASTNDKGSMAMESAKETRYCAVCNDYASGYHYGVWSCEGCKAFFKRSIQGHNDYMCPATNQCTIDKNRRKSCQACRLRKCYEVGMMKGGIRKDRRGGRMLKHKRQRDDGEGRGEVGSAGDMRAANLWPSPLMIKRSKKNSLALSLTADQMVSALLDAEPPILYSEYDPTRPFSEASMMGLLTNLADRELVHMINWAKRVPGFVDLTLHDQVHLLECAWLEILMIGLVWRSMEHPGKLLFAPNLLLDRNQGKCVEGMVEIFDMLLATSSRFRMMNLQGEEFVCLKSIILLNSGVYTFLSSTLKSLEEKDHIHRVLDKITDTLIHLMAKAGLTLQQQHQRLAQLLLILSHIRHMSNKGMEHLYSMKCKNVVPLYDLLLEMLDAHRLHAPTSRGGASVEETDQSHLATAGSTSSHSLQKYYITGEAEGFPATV
Description: (§1) Selective estrogen receptor down-regulator activity at FLAG-tagged ERalpha (unknown origin) expressed in HEK293 cells assessed as induction of ERalpha degradation by luciferase reporter gene assay

Estrogen receptor [2] = biological target: T1, Estrogen receptor; remark: listed apart in the source
Description: Antagonist activity at FLAG-tagged ERalpha (unknown origin) expressed in HEK293 cells assessed as reduction in E2-induced ER-alpha-mediated transcriptional activity by luciferase reporter gene assay

Estrogen receptor [3] = biological target: T1, Estrogen receptor; remark: listed apart in the source
Description: Binding affinity to GST-tagged human ER alpha ligand-binding domain by TR-FRET assay

Estrogen receptor [4] = biological target: T1, Estrogen receptor; assay: Agonist activity at FLAG-tagged ERalpha (unknown origin) expressed in HEK293 cells assessed as induction of ER-alpha-mediated transcriptional activity by luciferase reporter gene assay; assay type: cell-based
Estrogen receptor [5] = biological target: T1, Estrogen receptor; conditions: hek293
Description: as §1

EC50 (Estrogen receptor [1])	IC50 (Estrogen receptor [2])	IC50 (Estrogen receptor [3])	EC50 (Estrogen receptor [4])	EC50 (Estrogen receptor [5])	Structure (SMILES)
1 nM	3.3 nM	0.06 nM	–	–	CCC(=C(c1ccc(O)cc1)c1ccc(O)cc1)c1ccccc1
> 10000 nM	> 10000 nM	790 nM	> 10000 nM	–	Cc1cc(Cc2ccc(O)c(C)c2)ccc1O
10 nM	–	1.3 to 3.2 nM	–	–	CCCC(CCC)(c1ccc(O)c(C)c1)c1ccc(O)c(C)c1
88 nM	–	26 nM	–	–	CCCCC(CCCC)(c1ccc(O)c(C)c1)c1ccc(O)c(C)c1
729 nM	–	280 nM	–	–	CCc1cc(C(CC)(CC)c2ccc(O)c(CC)c2)ccc1O
> 10000 nM	–	1280 nM	–	–	CCCC(CCC)(c1ccc(O)c(CC)c1)c1ccc(O)c(CC)c1
80 nM	213 nM	77 nM	20 nM	–	CCCC(CCC)(c1ccc(O)c(C)c1)c1ccc(N(C)C)c(C)c1
545 nM	207 nM	7.5 nM	–	–	CCCC(CCC)(c1ccc(O)c(C)c1)c1ccc(NC)c(C)c1
204 nM	94 nM	99 nM	–	–	CCCC(CCC)(c1ccc(O)c(C)c1)c1ccc(OCC(=O)N(C)C)c(C)c1
104 nM	31 nM	43 nM	–	–	CCCC(CCC)(c1ccc(O)c(C)c1)c1ccc(OCC(=O)NC)c(C)c1
93 nM	44 nM	22 nM	–	–	CCCC(CCC)(c1ccc(O)c(C)c1)c1ccc(OCC(=O)OCC)c(C)c1
437 nM	522 nM	37 nM	–	–	CCCC(CCC)(c1ccc(O)c(C)c1)c1ccc(/C=C/C(=O)O)c(C)c1

Further lines, the compound ahead of its results:

Structure (SMILES)	EC50 (Estrogen receptor [1])	IC50 (Estrogen receptor [2])	IC50 (Estrogen receptor [3])	EC50 (Estrogen receptor [4])	EC50 (Estrogen receptor [5])
Oc1ccc(Cc2ccc(O)cc2)cc1	> 10000 nM	> 10000 nM	1430 nM	–	–
CCC(CC)(c1ccc(O)cc1)c1ccc(O)cc1	181 nM	–	24 nM	–	–
CCC(CC)(c1ccc(O)c(C)c1)c1ccc(O)c(C)c1	28 nM	–	1.4 nM	–	–
CCCC(CCC)(c1ccc(O)cc1)c1ccc(O)cc1	65 nM	–	5.9 nM	–	–
CCCCC(CCCC)(c1ccc(O)cc1)c1ccc(O)cc1	606 nM	–	100 nM	–	–
CCCC(CCC)(c1ccc(O)c(C)c1)c1ccc(OCCN(C)C)c(C)c1	–	36 nM	52 nM	–	Not Active
CCCC(CCC)(c1ccc(O)c(C)c1)c1ccc(OCC(=O)OC(C)C)c(C)c1	116 nM	99 nM	90 nM	–	–
CCCC(CCC)(c1ccc(N)c(C)c1)c1ccc(O)c(C)c1	9 nM	8.1 nM	1.7 nM	1.3 nM	–
CCCC(CCC)(c1ccc(O)c(C)c1)c1ccc(OCCC(C)C)c(C)c1	427 nM	1200 nM	160 nM	–	–
CCCC(CCC)(c1ccc(O)c(C)c1)c1ccc(NC(C)=O)c(C)c1	> 10000 nM	213 nM	354 nM	–	–
CCCC(CCC)(c1ccc(O)c(C)c1)c1ccc(/C=C/C(=O)OCC)c(C)c1	193 nM	561 nM	303 nM	–	–
